Counter-ions that a name gives are not always drawn.
Experiments:
rat NHE-3 = target: T1, rat NHE-3 (Rattus norvegicus, UniProt P26433); experiment: Cell-based assay of NHE-3 activity (Pharmacological Test Example 1); details: OK cells expressing rat NHE-3; 0-30 uM test compound, 5 uM EIPA; read-out: rat NHE-3 Average pIC50 (converted)
T1 construct: expressed in transfected cells; host or cells: Opossum kidney (OK) cells (ATCC), electroporated
How it was run: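 Na+-dependent H+ exchange tracked with the pH-sensitive dye BCECF in opossum kidney cells transiently expressing rat NHE-3. Intracellular acidification by NH4Cl prepulse, then 10 min in ammonium- and Na+-free HEPES, pH 7.4, room temperature. Initial rates averaged over 3-6 replicates give pIC50.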

human NHE3 = target: T2, human NHE3 (Homo sapiens, UniProt P48764); experiment: Cell-based assay of NHE-3 activity (persistent inhibition), human; details: human Persistence assay; for IC50: 60 min incubation, washout, recovery initiated 10 min after washout
T2 construct: host or cells: PS120 fibroblasts
T2 sequence (P48764 26-834): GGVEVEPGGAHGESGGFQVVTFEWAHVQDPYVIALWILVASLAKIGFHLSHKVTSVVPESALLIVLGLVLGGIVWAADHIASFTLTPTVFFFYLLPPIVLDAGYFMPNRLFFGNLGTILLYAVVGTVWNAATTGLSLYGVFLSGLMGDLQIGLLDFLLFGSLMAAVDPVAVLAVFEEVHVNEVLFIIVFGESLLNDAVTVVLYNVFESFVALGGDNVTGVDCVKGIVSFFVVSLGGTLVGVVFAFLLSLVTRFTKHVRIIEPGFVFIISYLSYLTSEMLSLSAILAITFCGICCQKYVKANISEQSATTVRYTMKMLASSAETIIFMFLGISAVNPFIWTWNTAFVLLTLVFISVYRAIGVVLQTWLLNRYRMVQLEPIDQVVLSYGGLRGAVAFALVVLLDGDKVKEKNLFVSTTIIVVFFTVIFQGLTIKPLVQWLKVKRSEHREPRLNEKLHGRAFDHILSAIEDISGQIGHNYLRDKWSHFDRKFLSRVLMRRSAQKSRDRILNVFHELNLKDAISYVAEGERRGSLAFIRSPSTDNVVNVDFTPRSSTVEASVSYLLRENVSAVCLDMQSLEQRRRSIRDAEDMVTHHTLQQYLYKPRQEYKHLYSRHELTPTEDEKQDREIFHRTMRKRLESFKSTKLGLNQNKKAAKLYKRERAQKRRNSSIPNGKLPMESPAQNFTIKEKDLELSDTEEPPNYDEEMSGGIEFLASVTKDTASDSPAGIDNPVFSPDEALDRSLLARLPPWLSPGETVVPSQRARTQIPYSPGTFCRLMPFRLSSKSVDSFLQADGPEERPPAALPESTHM
T2 sequence (Q99653 2-195 partner limits assumed): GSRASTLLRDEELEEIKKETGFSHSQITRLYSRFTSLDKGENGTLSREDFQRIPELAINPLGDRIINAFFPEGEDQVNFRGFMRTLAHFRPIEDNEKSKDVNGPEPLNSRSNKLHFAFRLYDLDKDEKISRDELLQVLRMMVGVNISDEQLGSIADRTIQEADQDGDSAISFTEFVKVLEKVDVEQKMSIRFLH
Method: The ability of compounds to inhibit human and rat NHE-3-mediated Na^+-dependent H^+ antiport after application and washout was measured using a modification of the pH sensitive dye method described above. PS120 fibroblasts stably expressing human NHE3 and NHERF2 were obtained from Mark Donowitz (Baltimore, Md.). Opossum kidney (OK) cells were obtained from the ATCC and propagated per their instructions. The rat NHE-3 gene was introduced into OK cells via electroporation, and cells were seeded into 96 well plates and grown overnight. Medium was aspirated from the wells, cells were washed once with NaCl-HEPES buffer (100 mM NaCl, 50 mM HEPES, 10 mM glucose, 5 mM KCl, 2 mM CaCl2, 1 mM MgCl2, pH 7.4), then overlayed with NaCl-HEPES buffer containing 0-30 μM test compound. After a 60 min incubation at room temperature, the test drug containing buffer was aspirated from the cells. Following aspiration, cells were washed once with NaCl-HEPES buffer without drug, then incubated for 30 min at 37° C. with NH4Cl-HEPES buffer (20 mM NH4Cl, 80 mM NaCl, 50 mM HEPES, 5 mM KCl, 2 mM CaCl2, 1 mM MgCl2, pH 7.4) containing 5 μM BCECF-AM. Cells were washed once with Ammonium free, Na^+-free HEPES (100 mM choline, 50 mM HEPES, 10 mM glucose, 5 mM KCl, 2 mM CaCl2. 1 mM MgCl2. pH 7.4) and incubated in the same buffer for 10 minutes at room temperature to lower intracellular pH. NHE-3-mediated recovery of neutral intracellular pH was initiated (10 min after compound washout) by addition of Na-HEPES buffer. […] Changes in intracellular pH were monitored using a FLIPR Tetra® (Molecular Devices, Sunnyvale, Calif.) by excitation at λex 439 to 505 nm, and measuring BCECF fluorescence at λem 538 nm. The initial rate of the fluorescence ratio change was used as a measure of NHE-mediated Na^+/H^+ activity, and reported as the change in fluorescence ratio per minute.

T1 sequence (P26433 29-831): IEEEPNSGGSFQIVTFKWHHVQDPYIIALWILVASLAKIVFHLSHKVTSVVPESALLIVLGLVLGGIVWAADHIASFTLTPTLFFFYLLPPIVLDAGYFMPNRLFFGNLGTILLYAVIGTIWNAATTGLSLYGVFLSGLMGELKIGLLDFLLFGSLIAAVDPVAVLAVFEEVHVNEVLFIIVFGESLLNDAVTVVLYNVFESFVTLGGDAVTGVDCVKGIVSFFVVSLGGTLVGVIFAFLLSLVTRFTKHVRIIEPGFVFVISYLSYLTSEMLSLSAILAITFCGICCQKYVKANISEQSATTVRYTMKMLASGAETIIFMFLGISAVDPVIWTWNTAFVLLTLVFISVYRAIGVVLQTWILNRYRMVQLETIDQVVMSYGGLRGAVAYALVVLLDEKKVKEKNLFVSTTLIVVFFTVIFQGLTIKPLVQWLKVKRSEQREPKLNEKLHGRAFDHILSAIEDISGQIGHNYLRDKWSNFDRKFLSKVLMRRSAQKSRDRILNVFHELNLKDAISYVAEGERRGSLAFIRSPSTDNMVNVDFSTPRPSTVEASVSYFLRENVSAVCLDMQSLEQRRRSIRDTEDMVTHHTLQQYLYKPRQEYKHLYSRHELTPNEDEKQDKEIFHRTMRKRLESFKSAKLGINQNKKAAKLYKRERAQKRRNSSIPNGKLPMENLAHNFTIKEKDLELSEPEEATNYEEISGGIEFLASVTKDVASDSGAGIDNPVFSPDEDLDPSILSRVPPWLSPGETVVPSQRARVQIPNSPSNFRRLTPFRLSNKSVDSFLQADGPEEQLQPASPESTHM

| SMILES | IC50 (rat NHE-3) | % inhibition (human NHE3) | IC50 (human NHE3) |
| --- | --- | --- | --- |
| CN1Cc2c(Cl)cc(Cl)cc2[C@H](c2cccc(S(=O)(=O)NCCOCCOCCNC(=O)NCCCCNC(=O)NCCOCCOCCNS(=O)(=O)c3cccc([C@@H]4CN(C)Cc5c(Cl)cc(Cl)cc54)c3)c2)C1 (single isomer, unassigned) [Example 202, (S or R)—N,N′-(10,17-dioxo-3,6,21,24-tetraoxa-9,11,16,18-tetraazahexacosane-1,26-diyl)bis(3-((S)-6,8-dichloro-2-methyl-1,2,3,4-tetrahydroisoquinolin-4-yl)benzenesulfonamide) bis-hydrochloride salt] | < 100 nM | C (>70%) | < 100 nM |
| CN1Cc2c(Cl)cc(Cl)cc2[C@H](c2cccc(S(=O)(=O)NCCOCCOCCNC(=O)Nc3ccc(NC(=O)NCCOCCOCCNS(=O)(=O)c4cccc([C@@H]5CN(C)Cc6c(Cl)cc(Cl)cc65)c4)cc3)c2)C1 (single isomer, unassigned) [Example 203, (S or R)—N,N′-(2,2′-(2,2′-(2,2′-(1,4-phenylenebis(azanediyl))bis(oxomethylene)bis(azanediyl)bis(ethane-2,1-diyl))bis(oxy)bis(ethane-2,1-diyl))bis(oxy)bis(ethane-2,1-diyl))bis(3-((S or R)-6,8-dichloro-2-methyl-1,2,3,4-tetrahydroisoquinolin-4-yl)benzenesulfonamide) bis-hydrochloride salt] | < 100 nM | C (>70%) | < 100 nM |
